Test results as given in publication PMC11912471 (Journal of Medicinal Chemistry, 2025).
Counter-ions that a name gives are not always drawn.

Legend:
[1] = Sulforhodamine B (SRB) cytotoxicity assay, neonatal fibroblasts; format: cell-based, human; settings: human, normal primary neonatal fibroblast cells; 72 hrs @500 µM; supplement csv
Method: (§1) Our strategy to identify novel ODC inhibitors was to first screen new analogs for ODC inhibition at 50 μM using our in vitro enzyme activity assay and purified human ODC (Table 1). Those showing significant inhibition were then titrated to provide an ODC IC50 followed by cell-based screening against both cancer (Kelly neuroblastoma) and noncancerous (neonatal fibroblasts) cell lines. For the cancer cell line, higher cytotoxicity was desired and for the noncancerous cell line counter screen, lower cytotoxicity was desired.
(§2) Normal primary human neonatal fibroblast cells (ATCC) were maintained in DMEM medium (Gibco) supplemented with 10% heat-inactivated fetal bovine serum (Hyclone), penicillin (100 IU/mL), and streptomycin (100 μg/mL), nonessential amino acids (0.1 mM) and sodium pyruvate (1 mM). Kelly neuroblastoma cells (Sigma-Aldrich) were maintained in RPMI medium (Corning) supplemented with 10% heat-inactivated fetal bovine serum (Hyclone), penicillin (100 IU/mL), and streptomycin (100 μg/mL). Cell lines were routinely monitored for mycoplasma contamination using the MycoAlert PLUS Mycoplasma Detection Kit (Lonza).
(§3) The colorimetric sulforhodamine B (SRB) assay was used to measure cytotoxicity following treatment with ODC inhibitors. Briefly, Kelly neuroblastoma cells and normal primary human neonatal fibroblast cells were plated in transparent flat 96-well plates and allowed to attach overnight. Cells were treated with control or 500 μM ODC inhibitor for 72 h. Cells were then fixed with 10% TCA at 4 °C for 1 h, washed with deionized water, and dried at room temperature. Cells were stained with 100 μL of 0.4% SRB in 1% acetic acid for 20 min at room temperature, rinsed five times with 1% acetic acid and allowed to dry at room temperature. One hundred μL of 10 mM Tris–HCl pH 7.0 was added to each well, shaken for 10 min at room temperature and absorbance was read at 540 nm. Absorbance values were normalized relative to control readings and converted to percentage by multiplying by one hundred. The percent cytotoxicity was then determined by subtracting the relative percentage of the ODC inhibitor treated readings from the control which is 100%.

[2] = system: normal primary human neonatal fibroblast cells; assay: as above; format: cell-based; settings: 500 μM; for Cell cytotoxicity (72 hr @ 500 μM) Neonatal Fibroblasts: percent cytotoxicity
Method: as §1, §2, §3

[3] = molecular target: T1, endogenous ODC in Kelly neuroblastoma cells (Homo sapiens, UniProt P11926); assay: Cell-based ODC activity assay; settings: 500 μM inhibitor, Figure 6A
T1 construct: host or cells: Kelly neuroblastoma cells
T1 sequence (P11926 1-461): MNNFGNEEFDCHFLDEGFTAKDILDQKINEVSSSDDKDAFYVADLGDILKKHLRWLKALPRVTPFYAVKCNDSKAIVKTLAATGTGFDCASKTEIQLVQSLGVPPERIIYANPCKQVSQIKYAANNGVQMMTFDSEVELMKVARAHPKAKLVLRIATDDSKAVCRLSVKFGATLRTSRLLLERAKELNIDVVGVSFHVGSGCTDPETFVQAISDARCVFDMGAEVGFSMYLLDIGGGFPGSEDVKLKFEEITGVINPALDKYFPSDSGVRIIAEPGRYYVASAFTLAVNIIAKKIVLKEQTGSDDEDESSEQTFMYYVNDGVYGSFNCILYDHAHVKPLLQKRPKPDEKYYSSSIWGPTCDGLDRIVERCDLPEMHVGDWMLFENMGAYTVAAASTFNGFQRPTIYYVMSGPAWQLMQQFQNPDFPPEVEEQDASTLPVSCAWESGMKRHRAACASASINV
Method: In vitro ODC activity was measured using 100 ng of purified human ODC enzyme, as we previously described.[53],[99] ODC was incubated with increasing concentrations of inhibitors for 30 min at room temperature in a buffer containing 25 mM Tris and 0.1 mM EDTA. Each of the reactions was added to 200 μL of assay mix containing 6.25 mM Tris HCl (pH 7.5), 100 μM L-ornithine, 50 μM pyridoxal-5-phosphate, 1.56 mM DTT and 0.1 μCi [1–14C] L-ornithine (American Radiolabeled Chemicals, Inc., specific activity 55 mCi/mmol) in a microcentrifuge tube. In the cell-based ODC activity assay, Kelly neuroblastoma cells that were treated with 500 μM inhibitors were harvested in a buffer containing 25 mM Tris HCl, 0.1 mM EDTA, and 2.5 mM DTT. Fifty microliters of each homogenate were added to 200 μL of assay mix containing 6.25 mM tris HCl (pH 7.5), 500 μM L-ornithine, 50 μM pyridoxal-5-phosphate, 1.56 mM DTT and 0.1 μCi [1–14C] L-ornithine (American Radiolabeled Chemicals, Inc., specific activity 55 mCi/mmol) in a microcentrifuge tube. […] Disintegrations per minute (DPM) of each sample was measured using a TriCarb liquid scintillation counter (PerkinElmer). The specific ODC activity is expressed as nmol CO2/min/mg protein (in vitro) or pmol CO2/min/mg protein (cell-based). The individual ODC inhibitor IC50 values were determined using Graphpad Prism 8.

endogenous cellular ODC activity relative to control (in words) [3]	SMILES	cytotoxicity at 72 h, 500 µM [1] [%]	cytotoxic activity against neonatal fibroblasts (in words) ([2]; 72 h)	Cell cytotoxicity (72 hr @ 500 μM) Neonatal Fibroblasts [2] [%]
significantly reduced	NCCCON [APA, 3-(Aminooxy)propan-1-Amine Dihydrochloride]	37	somewhat reduced overt cytotoxic activity	37±10
greatest reduction	Cl.Cl.NOCC1(F)CCNC1 (stereo not shown) [Compound 11, 3-[(aminooxy)methyl]-3-fluoropyrrolidine di-formic acid]	21	–	21±17
